Source: ChEMBL document CHEMBL4507263, “Data for DCP probe BAY-474” (2021)

Assays:
[1] = molecular target: GABA-A receptor; anion channel (Rattus norvegicus) (UniProt O09028+P15431+P18506+P18508+P19969+P20236+P23574+P23576+P28471+P28473+P30191+P62813+P63079+P63138+Q91ZM7+Q9ES14); details: Compound concentration 10.0 uM
[2] = molecular target: D(3) dopamine receptor (Homo sapiens) (UniProt P35462); details: Compound concentration 10.0 uM
[3] = molecular target: Tyrosine-protein kinase Mer (Homo sapiens) (UniProt Q12866); test: Mer (h) Millipore kinase activity assay; details: Compound concentration 1.0 uM
[4] = molecular target: Tyrosine-protein kinase receptor TYRO3 (Homo sapiens) (UniProt Q06418); test: Rse (h) Millipore kinase activity assay; details: Compound concentration 1.0 uM
[5] = molecular target: D(2) dopamine receptor (Homo sapiens) (UniProt P14416); details: Compound concentration 10.0 uM
[6] = molecular target: Phosphorylase b kinase gamma catalytic chain, liver/testis isoform (Homo sapiens) (UniProt P15735); test: PhKgamma2 (h) Millipore kinase activity assay; details: Compound concentration 1.0 uM
[7] = molecular target: L-type calcium channel, benzothiazepine site (Cav1.2 alpha-1C) (Homo sapiens, UniProt Q13936); test: Inhibition of Calcium Channel L-Type, Benzothiazepine at 10 µM in the Eurofins-Panlabs radioligand binding assay (Eurofins_assay_214510); parameters: ligand concentration 2 nM, non-specific ligand with concentration 10 µM Diltiazem, incubation time 3h, incubation temperature 4 °C; details: male, Wistar, rat, rat whole brain preparation, probe [3H] Diltiazem; compound concentration 10 uM; target entry is the homologue from another species
[8] = molecular target: Testis-specific serine/threonine-protein kinase 1 (Homo sapiens) (UniProt Q9BXA7); test: TSSK1 (h) Millipore kinase activity assay; details: Compound concentration 1.0 uM
[9] = molecular target: Calcium/calmodulin-dependent protein kinase type 1 (Homo sapiens) (UniProt Q14012); test: CaMKI (h) Millipore kinase activity assay; details: Compound concentration 1.0 uM
[10] = molecular target: Mu-type opioid receptor (Homo sapiens) (UniProt P35372); details: Compound concentration 10.0 uM
[11] = molecular target: Mitogen-activated protein kinase kinase kinase kinase 2 (Homo sapiens) (UniProt Q12851); test: GCK (h) Millipore kinase activity assay; details: Compound concentration 1.0 uM
[12] = molecular target: Ephrin type-A receptor 2 (Homo sapiens) (UniProt P29317); test: EphA2 (h) Millipore kinase activity assay; details: Compound concentration 1.0 uM
[13] = molecular target: Calcium/calmodulin-dependent protein kinase type 1D (Homo sapiens) (UniProt Q8IU85); details: Compound concentration 1000.0 nM
[14] = test system: Tyrosine-protein kinase ABL1 (Homo sapiens), P00519 [M351T]; details: Compound concentration 1000.0 nM
[15] = molecular target: Phosphatidylinositol 4-phosphate 3-kinase C2 domain-containing subunit beta (Homo sapiens) (UniProt O00750); details: Compound concentration 1000.0 nM
[16] = test system: ALK tyrosine kinase receptor (Homo sapiens), Q9UM73 [L1196M]; details: Compound concentration 1000.0 nM
[17] = molecular target: Phosphatidylinositol 4,5-bisphosphate 3-kinase catalytic subunit gamma isoform (Homo sapiens) (UniProt P48736); details: Compound concentration 1000.0 nM
[18] = molecular target: Cyclin-dependent kinase 4 (Homo sapiens) (UniProt P11802); details: Compound concentration 1000.0 nM
[19] = test system: Epidermal growth factor receptor (Homo sapiens), P00533 [UNDEFINED MUTATION]; details: Compound concentration 1000.0 nM
[20] = molecular target: Mitogen-activated protein kinase kinase kinase kinase 3 (Homo sapiens) (UniProt Q8IVH8); details: Compound concentration 1000.0 nM
[21] = molecular target: Phosphatidylinositol 4-kinase beta (Homo sapiens) (UniProt Q9UBF8); details: Compound concentration 1000.0 nM
[22] = molecular target: Serine/threonine-protein kinase SIK2 (Homo sapiens) (UniProt Q9H0K1); details: Compound concentration 1000.0 nM
[23] = molecular target: Serine/threonine-protein kinase DCLK3 (Homo sapiens) (UniProt Q9C098); details: Compound concentration 1000.0 nM
[24] = molecular target: Mitogen-activated protein kinase kinase kinase 11 (Homo sapiens) (UniProt Q16584); details: Compound concentration 1000.0 nM
[25] = molecular target: SRSF protein kinase 1 (Homo sapiens) (UniProt Q96SB4); details: Compound concentration 1000.0 nM
[26] = test system: Tyrosine-protein kinase ABL1 (Homo sapiens), P00519 [Q252H]; details: Compound concentration 1000.0 nM
[27] = molecular target: Serine/threonine-protein kinase B-raf (Homo sapiens) (UniProt P15056); details: Compound concentration 1000.0 nM
[28] = molecular target: Microtubule-associated serine/threonine-protein kinase 1 (Homo sapiens) (UniProt Q9Y2H9); details: Compound concentration 1000.0 nM
[29] = molecular target: Cyclin-dependent kinase 9 (Homo sapiens) (UniProt P50750); details: Compound concentration 1000.0 nM
[30] = molecular target: Dual specificity mitogen-activated protein kinase kinase 7 (Homo sapiens) (UniProt O14733); details: Compound concentration 1000.0 nM
[31] = molecular target: Protein-tyrosine kinase 6 (Homo sapiens) (UniProt Q13882); details: Compound concentration 1000.0 nM
Rattus norvegicus = species on record: Rattus norvegicus; details: Compound concentration 10.0 uM
[32] = molecular target: Serine/threonine-protein kinase PAK 1 (Homo sapiens) (UniProt Q13153); details: Compound concentration 1000.0 nM
[33] = molecular target: Serine/threonine-protein kinase D1 (Homo sapiens) (UniProt Q15139); details: Compound concentration 1000.0 nM
Chain of Serine/threonine-protein kinase D1 (Homo sapiens) (Q15139 whole entry): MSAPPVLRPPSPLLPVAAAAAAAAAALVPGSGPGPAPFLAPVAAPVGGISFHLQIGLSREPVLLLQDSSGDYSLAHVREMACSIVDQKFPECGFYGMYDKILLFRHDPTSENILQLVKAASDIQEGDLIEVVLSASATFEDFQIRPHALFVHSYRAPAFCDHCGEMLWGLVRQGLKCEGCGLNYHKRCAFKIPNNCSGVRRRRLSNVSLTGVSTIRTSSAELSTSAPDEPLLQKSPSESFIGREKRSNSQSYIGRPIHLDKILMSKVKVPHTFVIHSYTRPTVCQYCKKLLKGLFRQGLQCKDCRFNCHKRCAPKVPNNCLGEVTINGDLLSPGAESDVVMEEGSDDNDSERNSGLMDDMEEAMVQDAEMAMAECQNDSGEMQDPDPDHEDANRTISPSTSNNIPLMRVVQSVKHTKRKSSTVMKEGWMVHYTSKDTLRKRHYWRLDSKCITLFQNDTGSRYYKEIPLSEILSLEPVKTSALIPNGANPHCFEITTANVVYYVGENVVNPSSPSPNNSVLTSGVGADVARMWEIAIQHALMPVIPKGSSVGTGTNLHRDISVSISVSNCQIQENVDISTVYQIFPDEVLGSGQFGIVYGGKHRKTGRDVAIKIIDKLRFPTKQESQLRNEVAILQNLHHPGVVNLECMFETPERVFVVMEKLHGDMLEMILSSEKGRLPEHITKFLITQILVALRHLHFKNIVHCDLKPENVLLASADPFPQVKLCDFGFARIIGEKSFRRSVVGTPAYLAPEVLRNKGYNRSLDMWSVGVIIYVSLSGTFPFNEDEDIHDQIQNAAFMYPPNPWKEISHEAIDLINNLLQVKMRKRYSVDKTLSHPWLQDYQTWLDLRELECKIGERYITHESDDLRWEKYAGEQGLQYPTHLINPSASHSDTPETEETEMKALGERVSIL

Chain of Epidermal growth factor receptor (Homo sapiens), P00533 [UNDEFINED MUTATION] (P00533 whole entry, looked up, change not shown): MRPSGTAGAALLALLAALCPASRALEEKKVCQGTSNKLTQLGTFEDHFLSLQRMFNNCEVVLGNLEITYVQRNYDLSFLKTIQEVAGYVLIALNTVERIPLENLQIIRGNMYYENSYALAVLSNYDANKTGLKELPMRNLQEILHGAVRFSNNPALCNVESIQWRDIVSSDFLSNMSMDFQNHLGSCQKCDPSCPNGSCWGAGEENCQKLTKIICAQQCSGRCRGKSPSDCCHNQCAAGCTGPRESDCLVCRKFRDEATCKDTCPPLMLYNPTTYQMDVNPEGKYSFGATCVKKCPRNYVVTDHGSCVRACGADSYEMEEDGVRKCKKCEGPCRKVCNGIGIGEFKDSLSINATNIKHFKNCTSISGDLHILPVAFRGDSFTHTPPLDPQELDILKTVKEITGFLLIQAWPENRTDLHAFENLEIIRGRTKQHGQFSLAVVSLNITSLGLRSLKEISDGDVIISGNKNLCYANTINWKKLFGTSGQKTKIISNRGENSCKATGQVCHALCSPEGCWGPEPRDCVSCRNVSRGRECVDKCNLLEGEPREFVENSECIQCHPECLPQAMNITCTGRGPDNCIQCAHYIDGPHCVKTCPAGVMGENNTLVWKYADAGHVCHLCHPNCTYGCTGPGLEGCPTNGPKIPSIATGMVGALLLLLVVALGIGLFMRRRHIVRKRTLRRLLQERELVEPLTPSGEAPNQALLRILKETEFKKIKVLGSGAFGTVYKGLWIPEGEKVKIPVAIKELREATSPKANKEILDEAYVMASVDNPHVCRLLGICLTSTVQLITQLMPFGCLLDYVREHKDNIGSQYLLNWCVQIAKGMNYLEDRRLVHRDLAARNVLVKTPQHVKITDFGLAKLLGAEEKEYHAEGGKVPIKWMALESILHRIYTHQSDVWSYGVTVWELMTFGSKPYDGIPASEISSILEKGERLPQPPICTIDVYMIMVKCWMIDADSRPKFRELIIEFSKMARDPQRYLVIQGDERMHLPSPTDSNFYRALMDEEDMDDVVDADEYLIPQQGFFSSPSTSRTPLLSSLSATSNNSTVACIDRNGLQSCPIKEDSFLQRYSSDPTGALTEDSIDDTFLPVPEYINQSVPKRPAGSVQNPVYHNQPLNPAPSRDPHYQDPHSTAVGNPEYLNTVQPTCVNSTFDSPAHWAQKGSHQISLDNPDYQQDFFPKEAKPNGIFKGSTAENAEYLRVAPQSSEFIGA
Chain of SRSF protein kinase 1 (Homo sapiens) (Q96SB4 whole entry): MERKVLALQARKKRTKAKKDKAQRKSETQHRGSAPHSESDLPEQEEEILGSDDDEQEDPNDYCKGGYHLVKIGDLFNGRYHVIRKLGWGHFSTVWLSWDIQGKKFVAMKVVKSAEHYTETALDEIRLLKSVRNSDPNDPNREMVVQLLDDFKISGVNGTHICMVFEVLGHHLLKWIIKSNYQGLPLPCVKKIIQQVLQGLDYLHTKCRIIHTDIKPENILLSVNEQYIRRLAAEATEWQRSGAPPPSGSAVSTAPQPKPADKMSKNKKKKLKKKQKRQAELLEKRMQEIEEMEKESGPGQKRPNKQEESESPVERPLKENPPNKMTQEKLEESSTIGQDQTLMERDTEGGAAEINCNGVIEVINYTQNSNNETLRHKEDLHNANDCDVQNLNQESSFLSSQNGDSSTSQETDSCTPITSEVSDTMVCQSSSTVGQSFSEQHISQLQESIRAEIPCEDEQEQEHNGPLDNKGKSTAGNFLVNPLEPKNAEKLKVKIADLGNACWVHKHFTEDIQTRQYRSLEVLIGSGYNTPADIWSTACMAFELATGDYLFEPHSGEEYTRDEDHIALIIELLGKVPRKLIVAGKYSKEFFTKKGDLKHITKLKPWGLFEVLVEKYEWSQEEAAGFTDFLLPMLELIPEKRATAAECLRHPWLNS
Chain of Serine/threonine-protein kinase B-raf (Homo sapiens) (P15056 whole entry): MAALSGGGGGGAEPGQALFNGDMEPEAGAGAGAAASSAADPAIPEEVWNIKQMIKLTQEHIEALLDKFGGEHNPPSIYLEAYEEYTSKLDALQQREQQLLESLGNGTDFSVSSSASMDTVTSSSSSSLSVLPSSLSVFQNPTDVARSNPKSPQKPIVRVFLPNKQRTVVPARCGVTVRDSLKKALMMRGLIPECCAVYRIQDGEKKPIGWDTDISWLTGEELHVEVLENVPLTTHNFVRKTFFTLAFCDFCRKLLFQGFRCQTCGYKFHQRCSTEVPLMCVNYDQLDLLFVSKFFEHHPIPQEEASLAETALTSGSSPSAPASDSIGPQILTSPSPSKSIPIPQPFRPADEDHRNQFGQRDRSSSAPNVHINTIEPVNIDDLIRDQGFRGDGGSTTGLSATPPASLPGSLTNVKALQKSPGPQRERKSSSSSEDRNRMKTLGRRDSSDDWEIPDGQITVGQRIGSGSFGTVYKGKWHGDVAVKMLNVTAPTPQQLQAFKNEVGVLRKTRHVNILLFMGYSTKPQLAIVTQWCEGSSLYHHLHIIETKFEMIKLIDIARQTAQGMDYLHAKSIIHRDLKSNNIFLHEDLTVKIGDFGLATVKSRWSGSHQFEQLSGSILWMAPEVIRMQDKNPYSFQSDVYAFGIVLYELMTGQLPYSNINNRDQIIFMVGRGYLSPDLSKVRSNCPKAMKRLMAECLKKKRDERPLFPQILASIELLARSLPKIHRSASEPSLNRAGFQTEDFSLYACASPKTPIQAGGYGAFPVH
Chain of Phosphatidylinositol 4,5-bisphosphate 3-kinase catalytic subunit gamma isoform (Homo sapiens) (P48736 whole entry, looked up, canonical isoform): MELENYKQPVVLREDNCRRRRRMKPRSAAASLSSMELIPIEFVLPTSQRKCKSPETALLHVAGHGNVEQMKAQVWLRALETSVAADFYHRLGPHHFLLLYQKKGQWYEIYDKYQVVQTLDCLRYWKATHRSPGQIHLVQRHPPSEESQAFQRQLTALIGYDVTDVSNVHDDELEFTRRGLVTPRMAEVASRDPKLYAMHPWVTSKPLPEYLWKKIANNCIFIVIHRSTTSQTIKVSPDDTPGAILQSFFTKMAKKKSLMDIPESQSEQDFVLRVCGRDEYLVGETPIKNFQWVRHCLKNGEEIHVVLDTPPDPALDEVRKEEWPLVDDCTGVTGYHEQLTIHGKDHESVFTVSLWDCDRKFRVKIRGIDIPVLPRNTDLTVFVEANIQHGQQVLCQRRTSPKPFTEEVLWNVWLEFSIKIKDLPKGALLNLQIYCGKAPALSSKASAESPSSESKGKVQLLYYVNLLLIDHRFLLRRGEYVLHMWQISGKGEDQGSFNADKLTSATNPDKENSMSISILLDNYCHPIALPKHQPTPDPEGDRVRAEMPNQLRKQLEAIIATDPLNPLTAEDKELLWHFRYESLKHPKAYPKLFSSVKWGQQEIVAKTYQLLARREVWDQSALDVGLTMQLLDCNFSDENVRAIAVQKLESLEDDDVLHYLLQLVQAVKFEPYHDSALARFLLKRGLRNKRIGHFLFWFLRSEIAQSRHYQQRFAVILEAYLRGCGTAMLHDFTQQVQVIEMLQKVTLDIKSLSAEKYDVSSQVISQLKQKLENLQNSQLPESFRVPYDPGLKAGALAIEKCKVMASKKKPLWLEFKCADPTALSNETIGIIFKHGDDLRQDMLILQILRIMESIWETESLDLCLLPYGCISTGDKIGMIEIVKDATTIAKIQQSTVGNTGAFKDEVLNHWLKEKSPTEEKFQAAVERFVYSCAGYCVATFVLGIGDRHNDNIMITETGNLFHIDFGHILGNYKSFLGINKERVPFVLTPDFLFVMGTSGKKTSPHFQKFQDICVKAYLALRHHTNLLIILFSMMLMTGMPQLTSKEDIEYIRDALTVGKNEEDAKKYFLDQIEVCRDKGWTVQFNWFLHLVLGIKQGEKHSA
Chain of D(2) dopamine receptor (Homo sapiens) (P14416 whole entry, canonical isoform): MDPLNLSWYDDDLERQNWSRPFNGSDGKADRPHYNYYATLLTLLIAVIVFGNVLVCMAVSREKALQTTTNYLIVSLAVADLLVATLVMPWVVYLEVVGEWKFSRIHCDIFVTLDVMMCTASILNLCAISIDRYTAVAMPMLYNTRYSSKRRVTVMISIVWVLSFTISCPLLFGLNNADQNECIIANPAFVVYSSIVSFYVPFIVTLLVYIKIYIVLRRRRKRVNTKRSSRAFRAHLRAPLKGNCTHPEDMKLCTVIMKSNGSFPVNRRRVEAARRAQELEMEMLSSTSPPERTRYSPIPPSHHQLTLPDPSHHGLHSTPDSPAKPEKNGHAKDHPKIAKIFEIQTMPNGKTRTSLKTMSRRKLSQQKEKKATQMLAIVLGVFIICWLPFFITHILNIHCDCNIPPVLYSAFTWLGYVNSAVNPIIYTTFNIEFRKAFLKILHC

## CC1=C(C#N)C(c2ccc3[nH]nc(C)c3c2)C(C#N)=C(C)N1 [BAY-474]
[1]
  inhibition: -2%
[2]
  inhibition: 18.1%
[3]
  inhibition: 12%
[4]
  inhibition: 28%
[5]
  inhibition: 2%
[6]
  inhibition: -10%
[7]
  inhibition at 3 h, 10 µM: -9% (not active)
[8]
  inhibition: 27%
[9]
  inhibition: -8%
[10]
  inhibition: -9%
[11]
  inhibition: 1%
[12]
  inhibition: 13%

## CC1=C(C#N)[C@@H](c2ccc3[nH]nc(C)c3c2)C(C#N)=C(c2ccc(Cl)cc2)N1 [BAY-827]
[13]
  residual activity: 100%
[14]
  residual activity: 94.6%
[15]
  residual activity: 100%
[16]
  residual activity: 100%
[17]
  residual activity: 100%
[18]
  residual activity: 96.1%
[19]
  residual activity: 79.5%
[20]
  residual activity: 100%
[21]
  residual activity: 95.1%
[22]
  residual activity: 100%
[23]
  residual activity: 71.3%
[24]
  residual activity: 100%
[25]
  residual activity: 100%
[26]
  residual activity: 100%
[27]
  residual activity: 100%
[28]
  residual activity: 100%
[29]
  residual activity: 96.9%
[30]
  residual activity: 92.2%
[31]
  residual activity: 100%
Rattus norvegicus
  inhibition: 69.5%
[32]
  residual activity: 100%
[33]
  residual activity: 81.1%
